Experimental data as given in patent US6706528B2, “Fluorescent magnesium indicators” (The United States of America as represented by the …, priority 2000, dated 2004).

What was measured:
[1] = UV absorption spectrum of the free indicator; format: physicochemical; settings: buffer pH 7.2
Description: The emission and excitation fluorescence spectra of the compounds of the present invention (e.g., (1a-3a), (9a), (11a-13a), (15a), and (18a-24a)) were recorded using a 0.5 to 1.0 μM solution of the chelator buffered at pH 7.2. The solutions also contained 120 mM KCl and 20 mM NaCl to mimic the ionic strength of the intracellular medium. These solutions were titrated with stock solutions of MgCl2 containing an equimolar concentration of the 4-oxo-4H-quinolizine carboxylic acids to cancel out dilution effects during the titration. After each titration step, the emission and excitation fluorescence spectra were recorded. The apparent dissociation constants of indicators for Mg^2+ were determined from the fluorescence spectra as originally described by Grynkiewicz et al. (Grynkiewicz et al., J. Biol. Chem. 260: 3440-3450 [1985]).
In the following experiments, tetrahydrofuran (THF) was dried and distilled over sodium/benzophenone (Nalbenzophenone) prior to use. Dimethylformamide (DMF) was dried over molecular sieves (4 Å). Ethyl acetate, hexane, diethyl ether and all commercially available chemicals were used as received. After extractive work-up, the combined organic phases were dried on magnesium sulfate. Water used in the spectrophotometric and fluorescence experiments was filtered through a hydro PICOPURE® 2 filter. Thin layer chromatography was carried out on Sigma-Aldrich TLC plates (silica gel on polyester). Chromatographic purifications were done by flash chromatography using Merck Silica Gel, grade 9385, 230-400 mesh, 60 Å. Melting points were measured on a Fisher-Johns melting point apparatus and are shown uncorrected herein. ^1H-NMR spectra and ^13C-NMR spectra were recorded on a Nicolet NT 360 MHz NMR Spectrometer and a Varian UNITY plus 400 MHz NMR Spectrometer. Chemical shifts are reported in parts per million (δ), using tetramethylsilane (TMS) as the internal standard. The signals are expressed as an s (singlet), d (doublet), t (triplet), q (quartet), m (multiplet), or br (broad). High cresolution mass spectra were obtained from the Washington University Resources for Biomedical and Bio-organic Mass Spectrometry on samples which were chromatographically pure. Compounds (9a) and (21a) were analyzed by FABMS using NBA Li matrix. UV absorption spectra were recorded with a Bechman DU 650 Spectrophotometer using Fisherbrand™ semimicro quartz cells (Fisher Scientific). Fluorescence measurements were recorded with an Aminco-Bowman® Series 2 Spectrometer using quartz fluorimeter cuvets from Sigma. pH measurements were done using a Mettler Toledo MP 255 pH meter.
The buffered solutions used in fluorescence/Mg^2+ titration experiments contained 120 mM KCl, 20 mM NaCl, and 15 mM TRIS buffer, and were brought to pH=7.2 with concentrated HCl. A stock solution of 2 mg of the indicator in 5 ml buffer was prepared. To record a UV spectrum, the stock solutions were diluted 40 times (25 μl in 975 μl). For the fluorescence titration experiments, 25 μl of the stock solution was diluted 100 times with 2475 μl buffer. Emission fluorescence and excitation fluorescence spectra were recorded using the appropriate excitation wavelength derived from the UV spectrum of the free indicator. To 2475 μl of a MgCl2 solution (100 mM, 250 mM or 500 mM (2a)), 25 μl of the stock solution of the indicator was added, to cancel out dilution during the titration. To the solution of the free indicator, increasing amounts of the MgCl2/indicator solution were added. After each titration step, fluorescence emission and fluorescence excitation spectra were recorded.

[2] = fluorescent response to increasing Ca2+ concentrations; format: binding; settings: for fluorescent response to increasing Ca^2+ concentrations: Ca^2+ up to 100 mM
[3] = fluorescence/pH titration to determine pKa; format: physicochemical; settings: 10 mM MOPS buffer, from pH 4.29, read-out: pKa of the carboxylate group on the ring system
Description: However, it is not intended that the present invention be so limited nor is it necessary to understand the mechanism in order to practice the present invention. Thus, the indicators are present in the deprotonated form and available for complexation at physiological pH.
To determine the pKa of 1-bromo-8-(1,2-dicarboxyethyl)-4-oxo-4H-quinolizine-3-carboxylic acid (21a), 250 μl of the stock solution of 1-bromo-8-(1,2-dicarboxyethyl)-4-oxo-4H-quinolizine-3-carboxylic acid was added to 25 ml of 10 mM MOPS, pH 4.29. The fluorescence emission spectrum was recorded. A 0.1 M NaOH solution containing an equal concentration of 1-bromo-8-(1,2-dicarboxyethyl)-4-oxo-4H-quinolizine-3-carboxylic acid (21a), was added dropwise. After each pH increase of 0.2, the emission spectrum was recorded. At pH 6.31, no change of the fluorescence emission was observed.

Compound | A, absorption maximum of the free indicator [1] | melting point | also measured
8-[3-(N,N-di(carboxymethyl)phenoxy]-4-oxo-4H-quinolizine-3-carboxylic acid [Compound 18a] | 370 nm |  | 
O=C(O)c1ccc2ccccn2c1=O [Compound 1a, 4-oxo-4H-quinolizine-3-carboxylic acid] | 385 nm |  | effect of Ca^2+ on the fluorescence emission ([2]; Ca^2+ levels in the nanomolar to submicromolar range): do not affect the fluorescence emission
O=C(O)c1ccc2cc(Cl)ccn2c1=O [Compound 2a, 4-oxo-8-chloro-4H-quinolizine-3-carboxylic acid] | 391 nm | > 250 °C | 
O=C(O)c1ccc2ccc3ccccc3n2c1=O [Compound 3a, [6,7]benzo-4-oxo-4H-quinolizine-3-carboxylic acid] | 410 nm |  | 
O=C(O)c1cc(Br)c2ccccn2c1=O [Compound 9a, 1-bromo-4-oxo-4H-quinolizine-3-carboxylic acid] | 403 nm | > 250 °C | fluorescent response to increasing Ca^2+ concentrations [2]: no fluorescent response
O=C(O)C(=Cc1cc(C(=O)O)c(=O)n2ccccc12)C(=O)O [Compound 12a, 1-(2,2-dicarboxyvinyl)-4-oxo-4H-quinolizine-3-carboxylic acid] | 400 nm |  | 
O=C(O)c1cc(CC(C(=O)O)C(=O)O)c2ccccn2c1=O [Compound 13a, 1-(2,2-dicarboxyethyl)-4-oxo-4H-quinolizine-3-carboxylic acid] | 395 nm |  | 
Nc1ccn2c(=O)c(C(=O)O)ccc2c1 [Compound 15a, 8-amino-4-oxo-4H-quinolizine-3-carboxylic acid] | 385 nm |  | 

Now from value to compound, other results behind:

A, absorption maximum of the free indicator [1] | melting point | Compound | also measured
410 nm |  | 1-[N,N-di(carboxymethyl)]-4-oxo-4H-quinolizine-3-carboxylic acid [Compound 11a] | 
380 nm |  | O=C(O)Cc1ccn2c(=O)c(C(=O)O)ccc2c1 [Compound 19a, 8-(carboxymethyl)-4-oxo-4H-quinolizine-3-carboxylic acid] | 
390 nm |  | O=C(O)CC(C(=O)O)c1ccn2c(=O)c(C(=O)O)ccc2c1 (stereo not drawn) [Compound 20a, 8-(1,2-dicarboxyethyl)-4-oxo-4H-quinolizine-3-carboxylic acid] | 
407 nm | > 250 °C | O=C(O)CC(C(=O)O)c1ccn2c(=O)c(C(=O)O)cc(Br)c2c1 (stereo not drawn) [Compound 21a, 1-bromo-8-(1,2-dicarboxyethyl)-4-oxo-4H-quinolizine-3-carboxylic acid] | pKa [3]: 5.6; fluorescent response to increasing Ca^2+ concentrations [2]: no fluorescent response
406 nm | > 250 °C | COc1ccc(-c2ccn3c(=O)c(C(=O)O)ccc3c2)cc1 [Compound 22a, 8-(4-methoxyphenyl)-4-oxo-4H-quinolizine-3-carboxylic acid] | 
386 nm | 245 to 247 °C | O=C(O)c1ccc2cc(-c3cccc4ccccc34)ccn2c1=O [Compound 23a, 8-(naphth-1-yl)-4-oxo-4H-quinolizine-3-carboxylic acid] | 
440 nm |  | O=C(O)c1ccc2cc(-c3cc4ccccc4o3)ccn2c1=O [Compound 24a, 8-benzo[b]furyl-4-oxo-4H-quinolizine-3-carboxylic acid] | 
